According to article PMC11571215, “Optimization of Antiproliferative Properties of Triimine Copper(II) Complexes” (Journal of Medicinal Chemistry, 2024):

Experiments:
HCT116-DoxR cells = test: Autophagy induction (CYTO-ID green, flow cytometry); format: cell-based, human; details: 48 h; complexes at IC50, Dox 6 μM, Cis 5 μM, rapamycin 1500 nM
Text: Furthermore, previous studies have shown that complexes containing terpyridine derivatives have the ability to trigger both apoptosis and autophagy cell death mechanisms in cancer cells simultaneously.[38] This convergence of death pathways may arise from an adaptive response of the heterogeneous tumor cell population.[38] In this context, understanding the mechanism by which cells lose viability in the presence of the two Cu(II) complexes with the simultaneous induction of apoptosis and autophagy becomes crucial. Autophagy is a highly conserved catabolic process crucial for maintaining cellular homeostasis but is also associated with type II programmed cell death.[75] It involves intracellular degradation through autophagolysosomes responsible for breaking down luminal content and enabling recycling of cellular components.[76],[77] The assessment of the complexes’ ability to induce autophagy was conducted using flow cytometry, employing the CYTO-ID green detection reagent. This probe emits green fluorescence, marking the autophagic vacuoles within the cell. Higher fluorescence indicates a greater proportion of autophagolysosomes.[78] Three positive controls were used: Dox, Cis, and rapamycin (1500 nM), whose concentration was previously optimized for the HCT116-DoxR cell line in the laboratory.[64] Rapamycin is known to induce autophagy through its mechanistic target, mTOR.
Cell death via autophagy was evaluated using the Autophagy Assay Kit (ab139484; Abcam, Cambridge, United Kingdom), according to the manufacturers’ instructions. HCT116-DoxR cells were seeded at a density of 1 × 10^5 cells/mL in 6-well plates for 24 h, under the same conditions described before. After this incubation period, the culture medium was replaced with a fresh medium containing the copper complexes under evaluation at their IC50 concentration. A 0.1% (v/v) DMSO solution was used as the negative (vehicle) control, and 6 μM Dox and 5 μM Cis were used as positive controls. The cells were incubated again for 48 h. Rapamycin (1500 nM) was also added as a positive control, and it was added 18 h before the end of the 48 h incubation. After this period, the supernatant was discarded, and each well was washed with PBS 1×. Subsequently, cells were detached using TrypLE Express and washed with phenol red-free DMEM medium containing 5% (v/v) FBS. Cells were incubated with Green Stain Solution in phenol red-free DMEM medium containing 5% (v/v) FBS for 30 min at RT. After this period, the samples were washed and then resuspended in Assay Buffer 1×. The samples were analyzed using an Attune Acoustic Focusing Flow Cytometer (Life Technologies, Carlsbad, USA), and the results were analyzed via the Attune Cytometric software.

[1] = system: HCT116 cells (colorectal carcinoma); test: MTS cell viability assay, HCT116 2D; format: cell-based, human; details: for IC50: 48 h of exposure, MTS, relative IC50, mean + SEM; for SI HCT116: ratio IC50 fibroblasts / IC50 HCT116
Protocol: The antiproliferative effect of the Cu(II) complexes in tumor and healthy cell lines was assessed through the MTS assay, a colorimetric method that is widely used to evaluate cellular viability, specifically mitochondrial viability.[53],[54] Cellular viability was determined after 48 h exposure to a concentration range (0.1–50 μM) of Cu(II) complexes in three tumor cell lines. […] Additionally, the viability of healthy primary dermal fibroblasts was performed as a comparison of the complexes’ antiproliferative effects in normal cells.
Cellular viability assays were performed using HCT116, HCT116-DoxR, and A2780 cancer cell lines as well as normal human primary fibroblasts. Cells were seeded at a density of 0.75 × 10^5 cells/mL in 96-well plates and incubated at 37 °C with 5% (v/v) CO2 for 24 h. After this incubation period, the copper complexes were accurately weighed and immediately dissolved in 100% (v/v) dimethyl sulfoxide (DMSO). Subsequently, the complexes were diluted to the final concentration using a cell culture medium. The culture medium in each well was replaced with fresh medium containing varying concentrations of the complexes (ranging from 0.01 to 50 μM). Negative controls contained culture medium with 0.1% (v/v) DMSO, and positive controls contained 0.4 μM Dox.
After an additional 48 h of incubation under the same conditions, cellular viability was assessed using the CellTiter 96 Aqueous One Solution Cell Proliferation Assay kit (Promega, Madison, USA). Metabolically active cells contain mitochondrial dehydrogenases that can reduce 3-(4,5-dimethylthiazol-2-yl)-5-(3-carboxymethoxyphenyl)-2-(4-sulfophenyl)-2H-tetrazolium, the inner salt (MTS) to formazan. The absorbance of formazan, measured at 490 nm in a microplate reader (Tecan Infinite M200, Tecan, Männedorf, Switzerland), is directly proportional to the number of viable cells.[104]
The cell viability versus concentration graphics were analyzed using Prism 8 software (GraphPad) to determine the half-maximal inhibitory concentration (IC50) of each complex for the respective cell line. Additionally, the selective index (SI) for each complex was calculated by dividing the IC50 of human fibroblasts by the IC50 values of the tested cancer cell lines.

| SMILES | increase in autophagic vesicles compared to 0.1% DMSO control (HCT116-DoxR cells) | IC50 [1] [nM] | SI HCT116 [1] | IC50 ([1]; Homo sapiens, HCT-116) [nM] |
| --- | --- | --- | --- | --- |
| [Cl][Cu-3]12([Cl])[n+]3ccccc3-c3cc(-c4cccc5ccccc45)cc([n+]31)-c1cccc[n+]12 [Cu1a] | approximately 2 fold | 280 ± 30 | 33.1 |  |
| COc1cccc2c1C(=O)c1c(O)c3c(c(O)c1C2=O)C[C@@](O)(C(=O)CO)C[C@@H]3O[C@H]1C[C@H](N)[C@H](O)[C@H](C)O1 [Doxorubicin] | 2.2 fold |  |  | 500 ± 100 |
| N.N.[Cl][Pt][Cl] [Cisplatin] | increase in green fluorescence intensity | 15600 ± 5300 |  |  |
| [Cl][Cu-3]12([Cl])[n+]3ccccc3-c3cc(-c4ccc5ccccc5c4)cc([n+]31)-c1cccc[n+]12 [Cu1b] | approximately 2 fold | 210 ± 50 | 63.3 |  |
